Reference: patent US8709743B2, “Inhibitors of bacterial nitric oxide synthase, and related screening methods” (Massachusetts Institute of Technology, priority 2007, dated 2014)

How the values were obtained:
[1] = Fluorescence response of the sensor to NO in buffered aqueous solution
[2] = tested on: SK—N—SH human neuroblastoma cells; assay: Detection of NO produced by cNOS in estradiol-stimulated SK—N—SH cells (fluorescence microscopy); type: cell-based
Experimental: (§1) FIG. 10 illustrates Cu(FL5) detection of NO produced by cNOS. (a) NO detection in SK—N—SH cells by Cu^II(FL5). Left to right: 25 min incubation of Cu(FL5) (1 μM) and 5, 10, 15, 25 min after co-treatment of Cu(FL5) (1 μM) and 17β-estradiol (100 nM). Images were taken with a Nikon Eclipse TS100 microscope after removing the DMEM media and washing the cells with PBS. Top: fluorescence images; bottom: phase contrast images. (b) Fluorescence intensity (F(t)/FCu(FL5)) from a was plotted against incubation time. (c) NO production with or without of L-NNA. Right: NO detection in cells after 10 min co-incubation of Cu(FL5) (1 μM) and 17β-estradiol (100 nM). Left: NO detection in cells pre-treated with L-NNA for 1 h before addition of Cu(FL5) and 17β-estradiol.
We investigated the ability of Cu(FL5) to detect NO produced in SK—N—SH human neuroblastoma cells under physiological conditions, since constitutive NO synthase (“cNOS”) in this cell line can be activated by estrogen to produce NO. […] The NO-dependent fluorescence response, monitored after simultaneous administration of 17β-estradiol (100 nM) and Cu(FL5) (1 μM) to the cells, was complete within 5 min with a 4.0±0.6-fold increase in fluorescence (FIGS. 10a and b). […]
Firstly, Cu(FL5) visualizes NO in the estradiol-stimulated neuroblastoma cells with brighter fluorescence than DAF-2 DA (o-diaminofluorescein diacetate). […]

[3] = Stability of nitrosated ligand at pH 7.0 (LC-MS); type: physicochemical; conditions: pH 7.0 buffered aqueous solution
Excerpt: High resolution MS of FL5-^14NO and FL-^15NO were also obtained, showing m/z=600.0729 for FL5-^14NO and 601.0736 for FL5-^15NO, corresponding to [FL5+NO—H+Cl]^− (calcd. m/z 600.0729 and 601.0700).

[4] = tested on: Raw 264.7 murine macrophage; assay: Detection of NO produced by iNOS in LPS and IFN-γ stimulated Raw 264.7 cells (fluorescence microscopy); type: cell-based; conditions: 12 h incubation period
[5] = FL5 binding of Cu(II): absorption titration with CuCl2 and fluorescence quenching; conditions: 1 μM FL5 solution, 37° C.
Experimental: Derivatized fluorescein molecules are excellent biosensors because they excite and emit in a region of the visible spectrum that is relatively free of interference. We prepared the fluorescein-based ligand FL5 (FIG. 7) by reacting 7′-chloro-4′-fluorescein-carboxaldehyde with 8-aminoquinaldine. We generated the Cu(II) fluorescein-based NO probe Cu(FL5) (FIG. 4) in situ reacting FL5 (prepared as described below) with CuCl2 in a 1:1 ratio in buffered aqueous solution (50 mM PIPES, pH 7.0, 100 mM KCl). […] A Job's plot was constructed to evaluate the nature of the FL5:Cu(II) complex by following the UV-vis absorption spectral change at 512 nm in pH 7.0 buffered solution. A break at 0.5 indicated the formation of a 1:1 complex.
The fluorescence of a 1 μM FL5 solution was diminished by 18±3% upon introduction of an equimolar quantity of CuCl2 at 37° C. Addition of excess NO to a buffered aqueous Cu(FL5) solution led to an immediate 11.2±1.5-fold increase in fluorescence (FIG. 8). […] The lower detection limit for NO is 5 nM.

[6] = target: T1, iNOS (Mus musculus, UniProt P29477); assay: Attenuation of Cu(FL5) fluorescence response by iNOS inhibitor in stimulated Raw 264.7 cells; type: cell-based, murine
T1 construct: endogenous in cells; host or cells: Raw 264.7 murine macrophage cells (ATCC), stimulated with LPS and IFN-gamma
T1 sequence (P29477 whole entry): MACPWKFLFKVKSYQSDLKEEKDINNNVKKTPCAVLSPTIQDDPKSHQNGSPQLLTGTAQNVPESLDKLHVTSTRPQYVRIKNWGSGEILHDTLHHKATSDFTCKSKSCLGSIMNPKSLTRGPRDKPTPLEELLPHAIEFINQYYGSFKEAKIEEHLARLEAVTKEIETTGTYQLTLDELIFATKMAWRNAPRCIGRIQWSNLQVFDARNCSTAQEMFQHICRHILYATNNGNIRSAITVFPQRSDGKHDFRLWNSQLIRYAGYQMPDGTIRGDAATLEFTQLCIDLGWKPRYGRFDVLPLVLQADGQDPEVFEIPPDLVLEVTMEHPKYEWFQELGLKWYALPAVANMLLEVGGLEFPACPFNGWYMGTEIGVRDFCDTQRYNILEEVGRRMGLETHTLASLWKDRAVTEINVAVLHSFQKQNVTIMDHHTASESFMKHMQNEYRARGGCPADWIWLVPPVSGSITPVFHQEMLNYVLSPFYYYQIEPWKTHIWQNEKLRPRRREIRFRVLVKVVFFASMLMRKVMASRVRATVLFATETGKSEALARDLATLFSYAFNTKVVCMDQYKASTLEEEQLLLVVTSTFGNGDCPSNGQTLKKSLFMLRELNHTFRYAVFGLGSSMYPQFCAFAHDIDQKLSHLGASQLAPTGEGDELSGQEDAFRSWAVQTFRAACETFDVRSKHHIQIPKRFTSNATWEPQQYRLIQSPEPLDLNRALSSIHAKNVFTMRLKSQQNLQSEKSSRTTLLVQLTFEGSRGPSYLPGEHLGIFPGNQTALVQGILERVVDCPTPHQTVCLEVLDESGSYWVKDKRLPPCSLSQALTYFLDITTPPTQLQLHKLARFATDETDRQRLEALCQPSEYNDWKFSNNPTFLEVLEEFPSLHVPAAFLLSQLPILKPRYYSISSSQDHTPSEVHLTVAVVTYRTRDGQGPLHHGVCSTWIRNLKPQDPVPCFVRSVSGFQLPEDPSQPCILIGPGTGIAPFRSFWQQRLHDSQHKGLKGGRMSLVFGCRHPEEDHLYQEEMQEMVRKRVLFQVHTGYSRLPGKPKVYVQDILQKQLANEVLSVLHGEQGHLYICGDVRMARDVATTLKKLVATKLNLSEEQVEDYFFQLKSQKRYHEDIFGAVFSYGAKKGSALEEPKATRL

[7] = tested on: cNOS; assay: Attenuation of Cu(FL5) fluorescence response by cNOS inhibitor in SK—N—SH cells; type: cell-based, human; conditions: SK—N—SH cells pre-treated with L-NNA for 1 h, 17β-estradiol
Experimental: as §1
We investigated the ability of Cu(FL5) to detect NO produced in SK—N—SH human neuroblastoma cells under physiological conditions, since constitutive NO synthase (“cNOS”) in this cell line can be activated by estrogen to produce NO. Estrogen administration leads to an increase in the cytosolic Ca(II) concentration that alters the structure of calmodulin, which in turn activates cNOS. The NO-dependent fluorescence response, monitored after simultaneous administration of 17β-estradiol (100 nM) and Cu(FL5) (1 μM) to the cells, was complete within 5 min with a 4.0±0.6-fold increase in fluorescence (FIGS. 10a and b). […]

**Q.** For “o-diaminofluorescein [DAF-2, reference compound]”, which “fluorescence in the presence of NO and the absence of O2” value ([1]; over a period of 1 h) is on record?
**A.** Its value is “unchanged”.

**Q.** For `CC(=O)Oc1ccc2c(c1)Oc1cc(OC(C)=O)ccc1C21OC(=O)c2cc(N)c(N)cc21` [DAF-2 DA, o-diaminofluorescein diacetate, reference compound], which “fluorescence change of treated cells after activation of cNOS” value ([2]; 30 min after activation of cNOS) is on record?
**A.** Its value is “only a slight fluorescence increase”.

**Q.** Which “stability at pH 7.0” value [3] does the source give for `Cc1ccc2cccc(N(Cc3c(O)ccc4c(-c5ccccc5C(=O)O)c5cc(Cl)c(=O)cc-5oc34)N=O)c2n1` [FL5-NO, 2-{2-chloro-6-hydroxy-5-[((2-methylquinolin-8-yl)(nitroso)amino)-methyl]-3-oxo-3H-xanthen-9-yl}-benzoic acid] here?
**A.** The value was “stable for several days”.

**Q.** Which results are given for `Cc1ccc2cccc(NCc3c(O)ccc4c(-c5ccccc5C(=O)O)c5cc(Cl)c(=O)cc-5oc34)c2n1` [FL5, 2-{2-chloro-6-hydroxy-5-[(2-methyl-quinolin-8-ylamino)-methyl]-3-oxo-3H-xanthen-9-yl}-benzoic acid]?
**A.** turn-on fluorescence in stimulated Raw 264.7 cells without Cu(II) ion [4]: turn-on fluorescence emission was not observed; increase in fluorescence when treated with excess NO over 30 min ([1]; no Cu(II): copper-free FL5 or FL5 with Cu(I)): 1.5±0.2 fold; fluorescence diminished upon introduction of an equimolar quantity of CuCl2 [5]: 18±3%; fluorescence change in stimulated SK—N—SH cells in the absence of Cu(II) ion ([2]; over a period of 25 min): no fluorescence increase

**Q.** Which “Cu(FL5) fluorescence response in the presence of iNOS inhibitor” value [6] does the source give for `CNC(=N)NCCC[C@H](N)C(=O)O` [L-NMA, N^G-methyl-L-arginine] here?
**A.** The value was “notably weaker fluorescence response”.

**Q.** Which “Cu(FL5) fluorescence response in the presence of cNOS inhibitor” value [7] does the source give for `N=C(NCCC[C@H](N)C(=O)O)N[N+](=O)[O-]` [L-NNA, N^G-nitro-L-arginine] here?
**A.** Its value is “notably weaker fluorescence response”.
